Entries after “also recorded” stand apart in the source; their conditions may differ. Each block holds one molecule with its values, some of them ahead of it. Where no end group is shown, it is not given here.
Assays:
kinin B2 receptors = target: T1, kinin B2 receptors (Rattus norvegicus, UniProt P25023); test: [3H]bradykinin binding assay in VSMC; details: rat aortic smooth muscle cells
T1 construct: endogenous in cells; host or cells: primary rat aortic vascular smooth muscle cells (male Sprague-Dawley), passage 2-4
T1 sequence (P25023 1-396): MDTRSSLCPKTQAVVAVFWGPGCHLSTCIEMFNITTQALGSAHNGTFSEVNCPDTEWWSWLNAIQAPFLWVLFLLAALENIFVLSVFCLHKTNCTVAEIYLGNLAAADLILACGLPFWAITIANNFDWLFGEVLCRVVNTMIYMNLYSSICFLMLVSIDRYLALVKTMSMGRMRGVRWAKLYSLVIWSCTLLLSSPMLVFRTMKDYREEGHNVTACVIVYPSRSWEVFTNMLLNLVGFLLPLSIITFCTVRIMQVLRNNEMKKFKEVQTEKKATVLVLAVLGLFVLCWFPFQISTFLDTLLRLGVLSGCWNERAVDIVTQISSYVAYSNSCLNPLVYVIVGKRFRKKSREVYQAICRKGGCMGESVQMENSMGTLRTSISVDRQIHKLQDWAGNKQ
Description: VSMC grown in 6-well plates were washed with and allowed to equilibrate with 1 ml of binding buffer (25 mM TES, 1 mM phenanthroline, 15 μM captopril, 0.1% BSA, pH 7.0). Saturation binding experiments were performed by incubating cells with [^-3 H] bradykinin (60,000 cpm/well) and varying the concentration of unlabeled bradykinin (5×10^-11 -1×10^-6 M) in binding buffer for 2 h at 4° C. Cells were washed 3 times with 2 ml of ice-cold binding buffer and solubilized for 10 min in 1% SDS, 0.1 M NaOH, 0.1 M Na2 CO3 solution and counted for radioactivity. Data were analyzed using the LIGAND program to determine the affinity constants and the receptor number.

[1] = tested on: spontaneously hypertensive rats; test: Mean systemic arterial blood pressure after brain injection of BK fragments; assay type: in vivo, rat; details: hypertensive anesthetized rats, preliminary for BK1-7, BK2-7
Description: Experiments were performed on male spontaneously hypertensive rats weighing 250-350 g. Anesthesia and surgical procedures are described (15-17). Following the surgical procedures, animals were allowed to stabilize for 30 minutes. Injections were then made unilaterally into the rostral ventral lateral medulla oblongata. In any given experiment, not more than four doses of the BK fragments were given. Successive injections were alternated between sides after an intervening period of 20 minutes. Mean arterial pressure was measured from a femoral arterial line with a transducer (Statham Laboratories, Inc. Hato Rey, Puerto Rico) and recorded using a polygraph (Grass Instrument Co., Quincy, Mass.). Values shown are the mean changes ± sem.

[2] = published work (11); cited from earlier work
[3] = cited from earlier work
[4] = tested on: endotoxin (LPS)-treated anesthetized rats; test: Endotoxin (LPS) shock in anesthetized rats; assay type: in vivo, rat; details: 1 μg/kg IV followed by 143 ng/kg/hr, one hour prior to LPS (12 mg/kg IV); vs vehicle/LPS
Description: Male Sprague-Dawley rats (220-480 g) were anesthetized with inactin (120 mg/kg, IP). The trachea was cannulated and the animal was allowed to breath 100% O2. Polyvinyl cannulas (Norton Plastics, Akron, Ohio) were inserted into the jugular vein and the femoral artery for the purposes of infusion of saline and agents and for monitoring of blood pressure, respectively, as described for FIGS. 2 and 3. Heart rate was monitored by tachograph and body temperature was maintained at 37° C. After a 2 hour period of equilibration with saline infusion (0.25 ml/hr), peptides (1 μg/kg followed by 143 ng/kg/hr) or saline were administered, followed one hour later by LPS (12 mg/kg). Time of death was taken as time after administration of LPS when there was no longer a detectable ECG. Values shown are the mean ± sem from the indicated number of studies and were compared using either t-test (FIG. 12A) or ANOVA with Fisher's post-hoc t-test (FIG. 12B).

displacement of specific binding of bradykinin to kinin B2 receptors (kinin B2 receptors): specifically displaced
Molecule: NC(N)=NCCC[C@@H](N)C(=O)N[C@@H](CCCN=C(N)N)C(=O)N1CCC[C@H]1C(=O)N1C[C@H](O)C[C@H]1C(=O)NCC(=O)N[C@@H](Cc1cccs1)C(=O)N[C@@H](CO)C(=O)N1Cc2ccccc2C[C@@H]1C(=O)N1[C@H](C(=O)N[C@@H](CCCN=C(N)N)C(=O)O)C[C@@H]2CCCC[C@@H]21 [HOE140]

Molecule: BK2-7: bradykinin fragment PPGFSP (Bradykinin; UniProt P01042 382-387, looked up, fragment)
systemic mean arterial pressure (MAP) response [1]: affect systemic blood pressure

Molecule: RPPGF [RPPGF, Arg-Pro-Pro-Gly-Phe]
stability in human plasma [2]: highly stable in human plasma

Molecule: RPPGFSPFR [bradykinin]
plasma half-life [3]: ~ 15 secs. | survival time [4]: did not prolong life; also recorded: does not provide protection

displacement of specific binding of bradykinin to kinin B2 receptors (kinin B2 receptors): not displaced
Molecule: des-arg9-bradykinin (RPPGFSPF; Bradykinin; UniProt P01042 381-388, looked up, fragment)
